Laboratory results from patent US4136192A, “4-Hydroxy-3-nitro (cyano) coumarins” (Beecham Group Limited, priority 1975, dated 1979).

What follows are compounds tested on slow reacting substance of anaphylaxis (SRS-A) (assay: SRS-A antagonism on isolated guinea pig ileum). Settings: isolated guinea pig ileum strips, rat SRS-A, tyrode with atropine and mepyramine; 50% inhibition per method; read-out: SRS-A antagonism on Guinea Pig Ileum: Approximate concentration to give inhibition of a than maximal response to SRS-A.
Parameters: species or system guinea pig ileum (SRS-A from rat)
Description: The compounds have been evaluated as direct antagonists of slow reacting substance of anaphylaxis (SRS-A) by assay using the isolated guinea pig ileum.
SRS-A rat was obtained from the peritoneal cavity of the rat after passive peritoneal anaphylaxis by a method based on that of R. P. Orange, D. J. Stechschulte and K. F. Austen, J. Immunology, 105 1087 (1970) as described by B. A. Spicer, J. W. Ross and H. Smith, Clin. exp. Immunol. 1975, 21, 419. The sensitizing serum containing reaginic antibody was produced in rats as described by B. A. Spicer, et. al. ibid.
2 ml of a 1 in 5 dilution of the sensitizing serum was injected by the peritoneal route into recipient rats and after 2 hours, 5 ml of tyrode solution containing 0.4 mg/ml ovalbumin (Sigma Grade III) and 50 μg/ml heparin was injected by the same route. Five minutes after challenge the rats were stunned and bled and the peritoneal fluids collected into polycarbonate tubes in ice. After centrifugation at 150 g for 5 minutes the supernatants were combined, heated in a boiling water bath for 5 minutes, cooled and stored at -20° C. The combined peritioneal fluids contained SRS-A and were used in the antagonism studies.
The SRS-A assays were carried out on isolated strips of guinea pig ileum in tyrode solution containing atropine 5 × 10^-7 M and mepyramine 10^-6 M as described by W. E. Brocklehurst, J. Physiology, 151, 416 (1960).
The activity of the antagonists was determined by their ability to reduce submaximal responses induced by SRS-A. The antagonists were added to a 4 ml bath in 0.1 ml volumes in aqueous solution half a minute before the addition of SRS-A and were present during induced contraction. Two or three concentrations of antagonists were used and the percentage inhibition of the SRS-A response plotted against the bath concentration of antagonist. The line of best fit was drawn and the concentration to cause 50% inhibition IC50 read graphically.

IC50 [nM]	SMILES
10	CCCc1c(OCC(O)COc2ccc3c(O)c([N+](=O)[O-])c(=O)oc3c2)ccc(C(C)=O)c1O (centres unmarked) [Example 114, 7-(3-[4-Acetyl-3-hydroxy-2-n-propylphenoxy]-2-hydroxypropoxy)-4-hydroxy-3-nitrocoumarin]
10000	O=c1oc2ccc(OCCc3ccccc3)cc2c(O)c1[N+](=O)[O-] [Example 115, 4-Hydroxy-3-nitro-6-(2-phenylethoxy) coumarin]
1000	O=c1oc2cc(OCCc3ccccc3)ccc2c(O)c1[N+](=O)[O-] [Example 116, 4-Hydroxy-3-nitro-7-(2-phenylethoxy) coumrin]
1000	O=c1oc2ccc(OCCCc3ccccc3)cc2c(O)c1[N+](=O)[O-] [Example 118, 4-Hydroxy-3-nitro-6-(3-phenylpropoxy) coumarin]
1000	O=c1oc2cc(OCCCc3ccccc3)ccc2c(O)c1[N+](=O)[O-] [Example 119, 4-Hydroxy-3-nitro-7-(3-phenylpropoxy) coumarin]
1000	CC(=O)c1ccc(CCCOc2ccc3c(O)c([N+](=O)[O-])c(=O)oc3c2)cc1 [Example 120, 7-(3-[4-Acetylphenyl]propoxy)-4-hydroxy-3-nitrocoumarin]
10000	O=c1oc2ccc(OCCOc3ccccc3)cc2c(O)c1[N+](=O)[O-] [Example 125, 4-Hydroxy-3-nitro-6-(2-phenoxyethoxy) coumarin]
10000	O=c1oc2cc(OCCOc3ccccc3)ccc2c(O)c1[N+](=O)[O-] [Example 126, 4-Hydroxy-3-nitro-7-(2-phenoxyethoxy) coumarin]
1000	O=c1oc2ccc(OCCCOc3ccccc3)cc2c(O)c1[N+](=O)[O-] [Example 128, 4-Hydroxy-3-nitro-6-(3-phenoxypropoxy) coumarin]
1000	O=c1oc2cc(OCCCOc3ccccc3)ccc2c(O)c1[N+](=O)[O-] [Example 129, 4-Hydroxy-3-nitro-7-(3-phenoxypropoxy) coumarin]
1000	Cc1cc(OCCCOc2ccccc2)cc2oc(=O)c([N+](=O)[O-])c(O)c12 [Example 130, 4-Hydroxy-5-methyl-3-nitro-7-(3-phenoxypropoxy)]
1000	CCCc1c(OCCCOc2ccccc2)ccc2c(O)c([N+](=O)[O-])c(=O)oc12 [Example 131, 4-Hydroxy-3-nitro-7-(3-phenoxy-propoxy) 8-n-propylcoumarin]
10000	CCc1cc2c(O)c([N+](=O)[O-])c(=O)oc2cc1OCCCOc1ccccc1 [Example 132, 6-Ethyl-4-hydroxy-3-nitro-7-(3-phenoxy-propoxy) coumarin]
1000	O=c1oc2cc(OCCCOc3ccc(Cl)cc3)ccc2c(O)c1[N+](=O)[O-] [Example 133, 7-(3-[4-Chlorophenoxy]propxy-4-hydroxy-3-nitrocoumarin]
10000	O=C(O)c1ccc(OCCCOc2ccc3c(O)c([N+](=O)[O-])c(=O)oc3c2)cc1 [Example 134, 7-(3-[4-Carboxyphenoxy]propoxy)-4-hydroxy-3-nitrocoumarin]
10000	COC(=O)c1ccc(OCCCOc2ccc3c(O)c([N+](=O)[O-])c(=O)oc3c2)cc1 [Example 135, 7-(3-[4-Carbomethoxyphenoxy]propoxy)-4-hydroxy-3-nitrocoumarin]

IC50 [nM]	SMILES
1000	CC(=O)c1ccc(OCCCOc2ccc3c(O)c([N+](=O)[O-])c(=O)oc3c2)cc1 [Example 136, 7-(3-[4-Acetylphenoxy]propoxy)-4-hydroxy-3-nitrocoumarin]
1000	CC(=O)c1ccc(OCCCOc2ccc3c(O)c([N+](=O)[O-])c(=O)oc3c2)cc1O [Example 138, 7-(3-[4-Acetyl-3-hydroxyphenoxy]propoxy)-4-hydroxy-3-nitrocoumarin]
100	CCCc1c(OCCCOc2ccc3c(O)c([N+](=O)[O-])c(=O)oc3c2)ccc(C(C)=O)c1O [Example 139, 7-(3-[4-Acetyl-3-hydroxy-2-n-propylphenoxy]propoxy)-4-hydroxy-3-nitrocoumarin]
10000	O=C(O)c1ccc(OCC(O)COc2ccc3c(O)c([N+](=O)[O-])c(=O)oc3c2)cc1 (centres unmarked) [Example 140, 7-(3-[4-Carboxyphenoxy]-2-hydroxy-propoxy)-4-hydroxy-3-nitrocoumarin]
10000	O=c1oc2cc(OCC(O)COc3ccccc3)ccc2c(O)c1[N+](=O)[O-] (centres unmarked) [Example 141, 4-Hydroxy-7-(2-hydroxy-3-phenoxypropoxy)-3-nitrocoumarin]
10000	CC(=O)c1ccc(OCC(O)COc2ccc3c(O)c([N+](=O)[O-])c(=O)oc3c2)cc1O (centres unmarked) [Example 143, 7-(3-[4-Acetyl-3-hydroxyphenoxy]2-hydroxypropoxy)-4-hydroxy-3-nitrocoumarin]
100	CC(=O)c1ccc(OCC(O)COc2ccc3c(O)c([N+](=O)[O-])c(=O)oc3c2)c(C)c1O (centres unmarked) [Example 144, 7-(3-[4-Acetyl-3-hydroxy-2-methyl-phenoxy]-2-hydroxy-propoxy)-4-hydroxy-3-nitrocoumarin]
100	O=c1oc2ccc(OCCCCCCOc3ccccc3)cc2c(O)c1[N+](=O)[O-] [Example 153, 4-hydroxy-3-nitro-6-(6-phenoxyhexoxy) coumarin]
1000	Cc1cccc(OCCCOc2ccc3c(O)c([N+](=O)[O-])c(=O)oc3c2)c1 [Example 156, 4-Hydroxy-7-(3-[3-methylphenoxy]propoxy)-3-nitrocoumarin]
1000	Cc1ccc(OCCCOc2ccc3c(O)c([N+](=O)[O-])c(=O)oc3c2)cc1 [Example 157, 4-Hydroxy-7-(3-[4-methylphenoxy]propoxy)-3-nitrocoumarin]
1000	COc1ccc(OCCCOc2ccc3c(O)c([N+](=O)[O-])c(=O)oc3c2)cc1 [Example 158, 4-Hydroxy-7-(3-[4-methoxyphenoxy]propoxy)-3-nitrocoumarin]
100	O=c1oc2cc(OCCCOc3ccc(F)cc3)ccc2c(O)c1[N+](=O)[O-] [Example 159, 7-(3-[4-Fluorophenoxy]propoxy)-4-hydroxy-3-nitrocoumarin]
10000	N#Cc1ccc(OCCCOc2ccc3c(O)c([N+](=O)[O-])c(=O)oc3c2)cc1 [Example 160, 7-(3[4-Cyanophenoxy]-propoxy)-4-hydroxy-3-nitrocoumarin]
10000	O=c1oc2cc(OCCCOc3ccc(-c4ccccc4)cc3)ccc2c(O)c1[N+](=O)[O-] [Example 161, 4-Hydroxy-7-(3-[4-phenylphenoxy]propoxy)-3-nitro-coumarin]
10000	O=c1oc2cc(OCCCOc3ccc4c(c3)CCCC4)ccc2c(O)c1[N+](=O)[O-] [Example 162, 4-Hydroxy-3-nitro-7-(3-[5,6,7,8-tetrahydro-2-naphthyloxy]propoxy) coumarin]
100	CCCc1ccccc1OCC(O)COc1ccc2c(O)c([N+](=O)[O-])c(=O)oc2c1 (centres unmarked) [Example 163, 4-Hydroxy-7-(2-hydroxy3-[2-n-propylphenoxy]propoxy)-3-nitro-coumarin]

SMILES	IC50 [nM]
O=c1oc2cc(OCCCCc3ccccc3)ccc2c(O)c1[N+](=O)[O-] [Example 121, 4-Hydroxy-3-nitro-7-(4-phenylbutoxy) coumarin]	1000
O=c1oc2cc(OCCCCc3ccc(Cl)cc3)ccc2c(O)c1[N+](=O)[O-] [Example 122, 7-(4-[4-Chlorophenyl]butoxy)-4-hydroxy-3-nitrocoumarin]	1000
Cc1ccc(CCCCOc2ccc3c(O)c([N+](=O)[O-])c(=O)oc3c2)cc1 [Example 123, 4-Hydroxy-7-(4-[4-methylphenyl]butoxy)-3-nitrocoumarin]	1000
Cc1ccc(OCCCOc2ccc3c(O)c([N+](=O)[O-])c(=O)oc3c2)c([N+](=O)[O-])c1 [Example 137, 4-Hydroxy-7-(3-[4-methyl-2-nitrophenoxy]propoxy)-3-nitrocoumarin]	10000
O=c1oc2cc(OCCCCOc3ccccc3)ccc2c(O)c1[N+](=O)[O-] [Example 150, 4-Hydroxy-3-nitro-7-(4-phenoxybutoxy)-coumarin]	1000
O=c1oc2ccc(OCCCCCOc3ccccc3)cc2c(O)c1[N+](=O)[O-] [Example 151, 4-Hydroxy-3-nitro-6-(5-phenoxypentoxy)-coumarin]	1000
O=c1oc2cc(OCCCCCOc3ccccc3)ccc2c(O)c1[N+](=O)[O-] [Example 152, 4-Hydroxy-3-nitro-7-(5-phenoxypentoxy)-coumarin]	1000

Same assay, conditions: second results table, unit inferred; isolated guinea pig ileum, rat SRS-A; read-out: SRS-A antagonism on Guinea Pig ileum: Approximate concentration to give 50% inhibition of a less than maximal response to SRS-A

IC50 [nM]	SMILES
1000	Cc1cc2c(cc1OCCCOc1ccccc1)C(=O)C([N+](=O)[O-])C2=O (centres unmarked) [Example 185, 5-Methyl-2-nitro-6-(3-phenoxypropoxy)indan-1,3-dione]
1000	N#CC1C(=O)c2ccc(OCCc3ccccc3)cc2C1=O (centres unmarked) [Example 189, 2-Cyano-5-(2-phenylethoxy)indan-1,3-dione]
